Patent US8957096B2, “Herbicidally active oxime-ether-substituted benzoylamides” (Bayer Intellectual Property GmbH, priority 2011, dated 2015)

Assays:
Assay type in all cases: in vivo
[1] = tested on: Setaria viridis; experiment: Pre-emergence herbicidal action against harmful plants; conditions: 504 h, application rate 320 g/ha, assessed visually after 3 weeks vs untreated controls, read-out: herbicidal activity in percent (%)
Excerpt: (§1) 1. Pre-Emergence Herbicidal Action Against Harmful Plants Seeds of monocotyledonous and dicotyledonous weed plants and crop plants are placed in wood-fiber pots in sandy loam and covered with soil. The compounds according to the invention, formulated in the form of wettable powders (WP) or as emulsion concentrates (EC), are then applied as aqueous suspension or emulsion at a water application rate of 600 to 800 l/ha (converted) with the addition of 0.2% of wetting agent to the surface of the covering soil. After the treatment, the pots are placed in a greenhouse and kept under good growth conditions for the test plants. The damage to the test plants is assessed visually after a test period of 3 weeks by comparison with untreated controls (herbicidal activity in percent (%): 100% activity=the plants have died, 0% activity=like control plants). Here, the compounds Nos. 1-002, 1-004, 1-007, 1-008, 1-043, 1-044, 1-046, 1-047, 1-060, 1-079, 1-080, 1-082, 1-083, 1-085, 1-095, 1-096, 1-098, 1-099, 1-059, 2-015, 3-015, 3-018, 3-020, 4-001, 4-118, 5-004, 5-017, 5-043, 5-056, 5-082, 5-095, 6-017, 7-017, 8-017 and 8-014, for example, each show, at an application rate of 320 g/ha, an activity of at least 80% against Abuthilon theophrasti and Amaranthus retroflexus. The compounds Nos. 1-001, 1-005, 1-014, 1-015, 1-017, 1-018, 1-020, 1-033, 1-040, 1-041, 1-053, 1-054, 1-056, 1-057, 1-092, 1-093, 3-014, 3-015, 8-014, 8-017 and 8-015 each show, at an application rate of 320 g/ha, an activity of at least 80% against Setaria viridis and Stellaria media. The compounds Nos. 3-017, 4-092 and 6-004 show, at an application rate of 320 g/ha, an activity of at least 80% against Amaranthus retroflexus and Veronica persica.

[2] = tested on: Stellaria media; experiment: as above; conditions: 504 h, application rate 320 g/ha, assessed visually after 3 weeks vs untreated controls, read-out: herbicidal activity in percent (%)
Excerpt: as §1

[3] = tested on: Abuthilon theophrasti; experiment: Post-emergence herbicidal action against harmful plants; conditions: 504 h, application rate 80 g/ha, assessed visually after about 3 weeks vs untreated controls, read-out: herbicidal action in percent (%)
Experimental: (§2) 2. Post-Emergence Herbicidal Action Against Harmful Plants Seeds of monocotyledonous and dicotyledonous weed and crop plants are placed in sandy loam in wood-fiber pots, covered with soil and cultivated in a greenhouse under good growth conditions. 2 to 3 weeks after sowing, the test plants are treated at the one-leaf stage. The inventive compounds formulated in the form of wettable powders (WP) or as emulsion concentrates (EC) are then sprayed onto the green parts of the plants as an aqueous suspension or emulsion at a water application rate of 600 to 800 l/ha (converted) with addition of 0.2% wetting agent. After the test plants have been left to stand in the greenhouse under optimal growth conditions for about 3 weeks, the action of the formulations is assessed visually in comparison to untreated controls (herbicidal action in percent (%): 100% activity=the plants have died, 0% activity=like control plants). Here, the compounds Nos. 1-001, 1-002, 1-004, 1-005, 1-007, 1-008, 1-014, 1-015, 1-017, 1-018, 1-020, 1-033, 1-040, 1-041, 1-043, 1-044, 1-046, 1-047, 1-053, 1-054, 1-056, 1-057, 1-059, 1-060, 1-079, 1-080, 1-082, 1-083, 1-086, 1-092, 1-093, 1-095, 1-096, 1-098, 1-099, 2-015, 3-014, 3-015, 3-017, 3-018, 3-020, 5-082, 5-095, 6-017, 7-017 and 8-014 each show, at an application rate of 80 g/ha, an activity of at least 80% against Abuthilon theophrasti, Amaranthus retroflexus and Stellaria media. The compounds Nos. 4-092, 4-093, 5-004, 5-017, 5-043 and 5-056 each show, at an application rate of 80 g/ha, an activity of at least 80% against Echinocloa crus galli, Pharbitis purpureum and Stellaria media.

[4] = tested on: Amaranthus retroflexus; experiment: as above; conditions: 504 h, application rate 80 g/ha, assessed visually after about 3 weeks vs untreated controls, read-out: herbicidal action in percent (%)
Experimental: as §2

[5] = tested on: Stellaria media; experiment: as above; conditions: 504 h, application rate 80 g/ha, assessed visually after about 3 weeks vs untreated controls, read-out: herbicidal action in percent (%)
Experimental: as §2

[6] = tested on: Abuthilon theophrasti; experiment: Pre-emergence herbicidal action against harmful plants; conditions: 504 h, application rate 320 g/ha, assessed visually after 3 weeks vs untreated controls, read-out: herbicidal activity in percent (%)
Excerpt: as §1

[7] = tested on: Amaranthus retroflexus; experiment: as above; conditions: 504 h, application rate 320 g/ha, assessed visually after 3 weeks vs untreated controls, read-out: herbicidal activity in percent (%)
Excerpt: as §1

CO/N=C/c1c(Cl)ccc(C(=O)Nc2nnnn2C)c1Cl [1-001]
≥ 80%: pest or weed control at 320 g/ha [1] | pest or weed control at 320 g/ha [2] | pest or weed control at 80 g/ha [3] | pest or weed control at 80 g/ha [4] | pest or weed control at 80 g/ha [5]

CCO/N=C/c1c(Cl)ccc(C(=O)Nc2nnnn2C)c1Cl [1-002]
≥ 80%: pest or weed control at 320 g/ha [6] | pest or weed control at 320 g/ha [7] | pest or weed control at 80 g/ha [3] | pest or weed control at 80 g/ha [4] | pest or weed control at 80 g/ha [5]

CO/N=C/c1c(S(C)(=O)=O)ccc(C(=O)Nc2nnnn2C)c1Cl [1-014]
≥ 80%: pest or weed control at 320 g/ha [1] | pest or weed control at 320 g/ha [2] | pest or weed control at 80 g/ha [3] | pest or weed control at 80 g/ha [4] | pest or weed control at 80 g/ha [5]

CCO/N=C/c1c(S(C)(=O)=O)ccc(C(=O)Nc2nnnn2C)c1Cl [1-015]
≥ 80%: pest or weed control at 320 g/ha [1] | pest or weed control at 320 g/ha [2] | pest or weed control at 80 g/ha [3] | pest or weed control at 80 g/ha [4] | pest or weed control at 80 g/ha [5]

CCn1nnnc1NC(=O)c1ccc(Cl)c(/C=N/OC)c1Cl [1-040]
≥ 80%: pest or weed control at 320 g/ha [1] | pest or weed control at 320 g/ha [2] | pest or weed control at 80 g/ha [3] | pest or weed control at 80 g/ha [4] | pest or weed control at 80 g/ha [5]

CCO/N=C/c1c(Cl)ccc(C(=O)Nc2nnnn2CC)c1Cl [1-041]
≥ 80%: pest or weed control at 320 g/ha [1] | pest or weed control at 320 g/ha [2] | pest or weed control at 80 g/ha [3] | pest or weed control at 80 g/ha [4] | pest or weed control at 80 g/ha [5]

CCn1nnnc1NC(=O)c1ccc(S(C)(=O)=O)c(/C=N/OC)c1Cl [1-053]
≥ 80%: pest or weed control at 320 g/ha [1] | pest or weed control at 320 g/ha [2] | pest or weed control at 80 g/ha [3] | pest or weed control at 80 g/ha [4] | pest or weed control at 80 g/ha [5]

CCO/N=C/c1c(S(C)(=O)=O)ccc(C(=O)Nc2nnnn2CC)c1Cl [1-054]
≥ 80%: pest or weed control at 320 g/ha [1] | pest or weed control at 320 g/ha [2] | pest or weed control at 80 g/ha [3] | pest or weed control at 80 g/ha [4] | pest or weed control at 80 g/ha [5]

C#CCON=Cc1c(S(C)(=O)=O)ccc(C(=O)Nc2nnnn2CC)c1Cl [1-057, 2-chloro-N-(1-ethyl-1H-tetrazol-5-yl)-4-(methylsulfonyl)-3-{[(prop-2-yn-1-yloxy)imino]methyl}benzamide]
≥ 80%: pest or weed control at 320 g/ha [1] | pest or weed control at 320 g/ha [2] | pest or weed control at 80 g/ha [3] | pest or weed control at 80 g/ha [4] | pest or weed control at 80 g/ha [5]

CCCn1nnnc1NC(=O)c1ccc(Cl)c(/C=N/OC)c1Cl [1-079]
≥ 80%: pest or weed control at 320 g/ha [6] | pest or weed control at 320 g/ha [7] | pest or weed control at 80 g/ha [3] | pest or weed control at 80 g/ha [4] | pest or weed control at 80 g/ha [5]

CCCn1nnnc1NC(=O)c1ccc(Cl)c(/C=N/OCC)c1Cl [1-080]
≥ 80%: pest or weed control at 320 g/ha [6] | pest or weed control at 320 g/ha [7] | pest or weed control at 80 g/ha [3] | pest or weed control at 80 g/ha [4] | pest or weed control at 80 g/ha [5]

CCCn1nnnc1NC(=O)c1ccc(S(C)(=O)=O)c(/C=N/OC)c1Cl [1-092]
≥ 80%: pest or weed control at 320 g/ha [1] | pest or weed control at 320 g/ha [2] | pest or weed control at 80 g/ha [3] | pest or weed control at 80 g/ha [4] | pest or weed control at 80 g/ha [5]

CCCn1nnnc1NC(=O)c1ccc(S(C)(=O)=O)c(/C=N/OCC)c1Cl [1-093]
≥ 80%: pest or weed control at 320 g/ha [1] | pest or weed control at 320 g/ha [2] | pest or weed control at 80 g/ha [3] | pest or weed control at 80 g/ha [4] | pest or weed control at 80 g/ha [5]
